The source of these data is PMC5908474 (European journal of medicinal chemistry, 2018).

The target of one assay is recombinant human S1PR3 (Homo sapiens, UniProt Q99500). The assay can be described thus: [32P]S1P competitive binding assay, S1PR3.
For a further assay, the target named is recombinant human S1PR2 (Homo sapiens, UniProt O95136). Nature of the assay: [32P]S1P competitive binding assay, S1PR2.
For a further assay, the target named is recombinant human S1PR1 (Homo sapiens, UniProt P21453). The assay can be described thus: [32P]S1P competitive binding assay, S1PR1. The following applies: for IC50: mean ± SD, CHO cell membrane, recombinant human S1PR1, 0.1 nM [32P]S1P; for fold increased S1PR1 IC50 value compared to compound 4: vs compound 4 (2.6 nM).
Another assay has as its target T1, recombinant human S1PR4 (Homo sapiens, UniProt O95977).
T1 sequence (O95977 1-384): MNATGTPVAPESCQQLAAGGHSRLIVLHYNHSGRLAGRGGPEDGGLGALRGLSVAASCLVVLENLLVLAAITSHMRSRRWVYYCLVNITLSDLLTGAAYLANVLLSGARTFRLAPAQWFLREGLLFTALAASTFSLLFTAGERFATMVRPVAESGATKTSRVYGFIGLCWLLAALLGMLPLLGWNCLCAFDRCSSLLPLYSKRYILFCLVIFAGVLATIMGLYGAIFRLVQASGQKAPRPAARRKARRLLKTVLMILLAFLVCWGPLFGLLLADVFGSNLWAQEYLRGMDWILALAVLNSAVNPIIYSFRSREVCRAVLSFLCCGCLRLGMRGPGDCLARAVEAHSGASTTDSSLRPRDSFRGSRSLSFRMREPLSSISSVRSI
Nature of the assay: [32P]S1P competitive binding assay, S1PR4.

The target in the next assay is recombinant human S1PR5 (Homo sapiens, UniProt Q9H228). Nature of the assay: [32P]S1P competitive binding assay, S1PR5.

SMILES strings stand for the structures. Read-outs that look alike come from different tables or passages of the source.

Sequence of recombinant human S1PR2 (O95136 whole entry): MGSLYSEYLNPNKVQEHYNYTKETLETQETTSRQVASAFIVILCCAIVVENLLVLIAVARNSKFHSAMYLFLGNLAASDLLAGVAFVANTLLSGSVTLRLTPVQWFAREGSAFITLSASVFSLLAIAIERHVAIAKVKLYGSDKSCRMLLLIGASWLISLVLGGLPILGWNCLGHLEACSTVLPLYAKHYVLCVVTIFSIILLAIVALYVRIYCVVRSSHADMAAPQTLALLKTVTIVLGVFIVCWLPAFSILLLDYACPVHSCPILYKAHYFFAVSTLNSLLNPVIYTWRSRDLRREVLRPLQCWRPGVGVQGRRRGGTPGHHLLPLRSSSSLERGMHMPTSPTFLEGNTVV
Sequence of recombinant human S1PR1 (P21453 whole entry): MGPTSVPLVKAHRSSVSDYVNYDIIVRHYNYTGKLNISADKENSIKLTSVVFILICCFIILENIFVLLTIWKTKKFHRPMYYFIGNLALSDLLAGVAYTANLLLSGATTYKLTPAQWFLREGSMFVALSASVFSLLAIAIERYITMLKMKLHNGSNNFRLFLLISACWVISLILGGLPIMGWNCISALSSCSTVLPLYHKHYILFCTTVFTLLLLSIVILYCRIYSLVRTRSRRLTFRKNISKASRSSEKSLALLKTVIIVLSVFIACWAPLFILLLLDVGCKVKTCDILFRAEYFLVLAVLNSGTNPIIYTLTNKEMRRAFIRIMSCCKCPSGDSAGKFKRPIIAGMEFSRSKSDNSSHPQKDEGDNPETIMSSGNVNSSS
Sequence of recombinant human S1PR3 (Q99500 whole entry): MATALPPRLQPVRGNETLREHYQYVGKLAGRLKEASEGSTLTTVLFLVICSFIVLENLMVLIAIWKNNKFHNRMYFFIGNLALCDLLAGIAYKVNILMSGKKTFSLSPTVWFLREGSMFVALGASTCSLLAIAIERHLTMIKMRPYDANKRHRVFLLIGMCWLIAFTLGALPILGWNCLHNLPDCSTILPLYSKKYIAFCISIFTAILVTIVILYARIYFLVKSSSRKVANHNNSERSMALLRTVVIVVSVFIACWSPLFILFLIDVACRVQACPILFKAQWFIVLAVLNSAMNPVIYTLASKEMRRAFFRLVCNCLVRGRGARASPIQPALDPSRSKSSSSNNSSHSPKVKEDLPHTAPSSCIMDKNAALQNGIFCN
Sequence of recombinant human S1PR5 (Q9H228 whole entry): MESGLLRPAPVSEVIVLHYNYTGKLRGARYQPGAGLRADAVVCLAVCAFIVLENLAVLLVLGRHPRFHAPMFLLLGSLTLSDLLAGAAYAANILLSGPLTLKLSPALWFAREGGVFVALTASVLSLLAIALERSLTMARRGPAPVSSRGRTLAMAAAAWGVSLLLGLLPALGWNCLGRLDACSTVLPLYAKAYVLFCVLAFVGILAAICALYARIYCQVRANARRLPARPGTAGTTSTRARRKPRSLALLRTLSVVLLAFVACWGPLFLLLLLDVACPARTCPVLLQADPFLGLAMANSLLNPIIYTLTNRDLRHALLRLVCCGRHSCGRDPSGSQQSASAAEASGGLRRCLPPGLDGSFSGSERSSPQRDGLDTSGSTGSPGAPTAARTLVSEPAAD

One may read the IC50 as the concentration that inhibits the measured activity by half. With `NS(=O)(=O)c1ccc(-c2noc(-c3ccc(OCCF)c(C(F)(F)F)c3)n2)cc1` [9a, 4-(5-(4-(2-Fluoroethoxy)-3-(trifluoromethyl)phenyl)-1,2,4-oxadiazol-3-yl)benzenesulfonamide], the IC50 at recombinant human S1PR3 and at recombinant human S1PR2 was greater than 1000 nM each time.

Take `O=C(O)c1ccc(-c2noc(-c3ccc(OCCF)c(C(F)(F)F)c3)n2)cc1` [10a, 4-(5-(4-(2-Fluoroethoxy)-3-(trifluoromethyl)phenyl)-1,2,4-oxadiazol-3-yl)benzoic acid]: the IC50 at recombinant human S1PR1 (S1PR1 IC50 (nM)) is greater than 1000 nM.

Take `O=C(NO)c1ccc(-c2noc(-c3ccc(OCCF)c(C(F)(F)F)c3)n2)cc1` [10b, 4-(5-(4-(2-Fluoroethoxy)-3-(trifluoromethyl)phenyl)-1,2,4-oxadiazol-3-yl)-N-hydroxybenzamide]: at recombinant human S1PR1 (vs benzamide 9b), the “fold increased S1PR1 IC50 value compared to compound 9b” value came out at 4 fold.

Regarding `NNC(=O)c1ccc(-c2noc(-c3ccc(OCCF)c(C(F)(F)F)c3)n2)cc1` [10c, 4-(5-(4-(2-Fluoroethoxy)-3-(trifluoromethyl)phenyl)-1,2,4-oxadiazol-3-yl)benzohydrazide], the “fold decreased S1PR1 IC50 value compared to compound 9b” value at recombinant human S1PR1 (vs benzamide 9b) came to 5 fold. The IC50 on recombinant human S1PR3 and at recombinant human S1PR2 was greater than 1000 nM each time.

Regarding `O=C(O)c1cn(Cc2ccc(-c3noc(-c4ccc(OCCF)c(C(F)(F)F)c4)n3)cc2)nn1` [12a, 1-(4-(5-(4-(2-Fluoroethoxy)-3-(trifluoromethyl)phenyl)-1,2,4-oxadiazol-3-yl)benzyl)-1H-1,2,3-triazole-4-carbox-ylic acid], the IC50 on recombinant human S1PR1 (read-out: S1PR1 IC50) came to 341 ± 126 nM. Besides, on recombinant human S1PR1, the “fold increased S1PR1 IC50 value compared to compound 4” value was 130 fold.

Regarding `OCc1cn(Cc2ccc(-c3noc(-c4ccc(OCCF)c(C(F)(F)F)c4)n3)cc2)nn1` [12b, (1-(4-(5-(4-(2-Fluoroethoxy)-3-(trifluoromethyl)phenyl)-1,2,4-oxadiazol-3-yl)benzyl)-1H-1,2,3-triazol-4-yl)met-hanol], the IC50 at recombinant human S1PR4 (read-out: IC50 (nM) S1PR4, mean ± SD, membranes with recombinant human S1PR4, [32P]S1P) was greater than 1000 nM; on recombinant human S1PR3 (read-out: IC50 (nM) S1PR3, mean ± SD, membranes with recombinant human S1PR3, [32P]S1P) it was greater than 1000 nM; at recombinant human S1PR2 (read-out: IC50 (nM) S1PR2, mean ± SD, membranes with recombinant human S1PR2, [32P]S1P), greater than 1000 nM; at recombinant human S1PR5 (read-out: IC50 (nM) S1PR5, mean ± SD, membranes with recombinant human S1PR5, [32P]S1P), greater than 1000 nM. Moreover, the “selectivity toward S1PR1 over S1PR2-5” value on recombinant human S1PR1 (S1PR1 over S1PR2-5) is recorded as greater than 100 fold. Further, the “fold decreased S1PR1 IC50 value compared to acid 12a” value on recombinant human S1PR1 (vs 12a (341 nM)) turned out to be 35 fold.

Consider `O=C(O)CNCc1ccc(-c2noc(-c3ccc(OCCF)c(C(F)(F)F)c3)n2)cc1` [16a, (4-(5-(4-(2-Fluoroethoxy)-3-(trifluoromethyl)phenyl)-1,2,4-oxadiazol-3-yl)benzyl)glycine], for which the IC50 at recombinant human S1PR1 (S1PR1 IC50 (nM)) worked out at 99.8 ± 12.2 nM. Further, at recombinant human S1PR1, the “fold increased S1PR1 IC50 value compared to compound 4” value was 38 fold.

As to `O=C(O)CCNCc1ccc(-c2noc(-c3ccc(OCCF)c(C(F)(F)F)c3)n2)cc1` [16b, 3-((4-(5-(4-(2-Fluoroethoxy)-3-(trifluoromethyl)phenyl)-1,2,4-oxadiazol-3-yl)benzyl)amino)propanoic acid], the IC50 on recombinant human S1PR4 is greater than 1000 nM; on recombinant human S1PR1 (S1PR1 IC50 (nM)) it was 6.3 ± 1.3 nM; at recombinant human S1PR3, greater than 1000 nM; on recombinant human S1PR2, greater than 1000 nM; at recombinant human S1PR5, greater than 1000 nM.

In the case of `NCCOCc1ccc(-c2noc(-c3ccc(OCCF)c(C(F)(F)F)c3)n2)cc1` [21b, 2-((4-(5-(4-(2-Fluoroethoxy)-3-(trifluoromethyl)phenyl)-1,2,4-oxadiazol-3-yl)benzyl)oxy)ethan-1-amine], the IC50 on recombinant human S1PR1 (S1PR1 IC50 (nM)) came out at 44.2 ± 6.8 nM.
